Measurements: article PMC8820820, “Feasibility and safety of targeting mitochondria for cancer therapy – preclinical characterization of gamitrinib, a first-in-class, mitochondriaL-targeted small molecule Hsp90 inhibitor” (Cancer Biology & Therapy, 2022)
Like-named read-outs stand apart in the source and are kept apart here.

Experiments:
[1] = Toxicokinetics in rats, twice weekly IV for 29 d; assay type: in vivo, Sprague-Dawley rats
Method: Ninety-six male and female Sprague-Dawley rats (6–7 weeks old) were received from Charles River Laboratories (Raleigh, NC) catheterized via a femoral vein prior to arrival. Animals were acclimated in individual stainless-steel cages with access to water and Certified Rodent Diet #2014 C (Envigo RMS) ad libitum for 6 d prior to study initiation. Environmental controls were set to maintain a temperature range of 20 to 26°C, a relative humidity range of 30 to 70%, eight or greater air changes/h, and a 12-h light/dark cycle. Animals were infused with sterile isotonic (0.9%) saline for a minimum of 4 d (0.20 mL/h for males or 0.15 mL/h for females) during the predose phase. At initiation of dosing, animals were 8 to 9 weeks old, and body weights ranged from 283 to 341 g for males and 188 to 238 g for females. Gamitrinib formulated as indicated above was administered by IV infusion on d 4, 8, 11, 15, 18, 22, 25, and 29 of the dosing phase at 1, 10, 25 mg/kg/dose and dose volume of 5 mL/kg. The vehicle control administered with the same schedule contained 2.5% DMSO, 0.125% polysorbate 80, 0.031% lecithin, 1.25% sucrose and 4.375% dextrose. Animals were checked twice daily throughout the duration of the study for mortality, abnormalities, and signs of pain or distress. Detailed observations were conducted for each animal up to two times during the predose phase and for each toxicity animal prior to dosing on d 1, 8, 15, 22, and 29 of the dosing phase and on d 1, 7, and 14 of the recovery phase. Blood samples were collected on d. 1, 4 and 29 of the dosing phase 5 min, 1 h and 24 h post-dose, maintained on chilled cryoracks and centrifuged within 1 h of collection. Tissue samples harvested from each animal were embedded in paraffin, sectioned, and slides were prepared and stained with hematoxylin and eosin.

CYP1A2 = target: T1, CYP1A2 (Homo sapiens, UniProt P05177); assay: CYP inhibition in liver microsomes; assay type: in vitro ADME
T1 construct: tissue Bioreclamation IVT; host or cells: pooled human liver microsomes
T1 sequence (P05177 1-516): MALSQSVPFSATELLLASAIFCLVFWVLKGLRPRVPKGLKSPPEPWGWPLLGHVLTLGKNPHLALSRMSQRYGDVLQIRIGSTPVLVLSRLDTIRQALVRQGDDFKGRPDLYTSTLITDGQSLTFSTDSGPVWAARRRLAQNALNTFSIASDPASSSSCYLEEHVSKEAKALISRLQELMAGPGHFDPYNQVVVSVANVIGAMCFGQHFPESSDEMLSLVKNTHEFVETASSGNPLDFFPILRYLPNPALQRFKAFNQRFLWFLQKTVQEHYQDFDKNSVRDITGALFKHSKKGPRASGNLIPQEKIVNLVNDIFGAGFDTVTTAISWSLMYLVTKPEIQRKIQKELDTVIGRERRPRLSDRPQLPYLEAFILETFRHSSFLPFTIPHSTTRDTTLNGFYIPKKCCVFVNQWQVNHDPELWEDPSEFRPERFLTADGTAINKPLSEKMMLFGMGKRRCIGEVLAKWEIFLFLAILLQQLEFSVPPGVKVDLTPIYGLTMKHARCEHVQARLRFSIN
Excerpt: CYP inhibition in liver microsomes.

hERG = hERG (Homo sapiens, UniProt Q12809)
Chain of hERG (Q12809 whole entry): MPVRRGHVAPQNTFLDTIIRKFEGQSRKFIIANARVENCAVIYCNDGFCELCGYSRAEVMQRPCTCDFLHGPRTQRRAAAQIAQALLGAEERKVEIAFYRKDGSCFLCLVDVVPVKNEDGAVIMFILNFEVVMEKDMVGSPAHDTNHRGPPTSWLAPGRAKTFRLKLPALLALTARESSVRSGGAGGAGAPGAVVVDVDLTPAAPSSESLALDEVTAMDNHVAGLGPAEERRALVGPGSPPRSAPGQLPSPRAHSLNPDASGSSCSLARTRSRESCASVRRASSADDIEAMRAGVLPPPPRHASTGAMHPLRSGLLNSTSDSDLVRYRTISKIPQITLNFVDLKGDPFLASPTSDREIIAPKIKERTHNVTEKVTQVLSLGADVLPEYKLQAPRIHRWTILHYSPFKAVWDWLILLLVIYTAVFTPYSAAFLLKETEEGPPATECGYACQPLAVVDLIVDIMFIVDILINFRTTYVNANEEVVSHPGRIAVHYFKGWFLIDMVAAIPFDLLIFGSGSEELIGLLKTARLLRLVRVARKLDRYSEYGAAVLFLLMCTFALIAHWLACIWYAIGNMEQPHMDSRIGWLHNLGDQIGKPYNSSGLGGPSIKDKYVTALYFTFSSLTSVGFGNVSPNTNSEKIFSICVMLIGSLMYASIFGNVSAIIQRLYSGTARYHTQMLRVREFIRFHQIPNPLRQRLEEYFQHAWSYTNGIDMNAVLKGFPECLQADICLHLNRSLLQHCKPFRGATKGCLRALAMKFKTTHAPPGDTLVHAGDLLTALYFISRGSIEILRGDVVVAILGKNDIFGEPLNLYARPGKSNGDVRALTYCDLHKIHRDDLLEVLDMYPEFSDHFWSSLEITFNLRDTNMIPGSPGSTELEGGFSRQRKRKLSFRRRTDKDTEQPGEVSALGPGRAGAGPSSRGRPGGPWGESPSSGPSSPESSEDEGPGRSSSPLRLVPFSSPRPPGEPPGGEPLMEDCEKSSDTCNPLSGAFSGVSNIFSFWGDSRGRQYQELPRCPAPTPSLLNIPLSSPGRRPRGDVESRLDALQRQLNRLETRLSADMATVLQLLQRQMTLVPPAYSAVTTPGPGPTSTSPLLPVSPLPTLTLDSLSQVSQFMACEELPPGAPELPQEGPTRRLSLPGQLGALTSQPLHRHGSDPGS
Method: Caco-2 and HEK293 cells were obtained from the American Type Culture Collection (ATCC, Manassas, VA) and grown in culture according to the supplier’s specifications. In some experiments, HEK293 cells were stably transfected with hERG cDNA, and polyclonal cultures were maintained in the presence of 250 µg/ml geneticin (G418).
Patch clamp recording. […] For electrophysiology recording, a micropipette was pulled from borosilicate glass with the pipette tip resistance between 3 ~ 5 MΩ. For each experiment, polyclonal HEK293 cells stably transfected with hERG cDNA and maintained in 250 µg/ml Geneticin (G418) were plated on 35 mm dishes on the microscope stage and a commercial patch clamp amplifier was used for the whole cell recordings. The tail currents were evoked at 22°C once every 30 sec by a 3 sec-50 mV repolarizing pulse following a 2 sec +50 mV depolarizing pulse with a hold voltage of -80 mV. A 50 msec depolarized pulse to -50 mV at the beginning of the voltage protocol served as a baseline for calculating the amplitude of the peak tail current. […] The cells were kept in the test solution until the peak tail current was stable (<5% change) for ~5 sweeps or for a maximum of 6 min, whichever came first. Peak tail amplitudes were plotted as a function of the sweep number. […] The % inhibition of the test article was calculated from the following equation:

Q: With COC1C=CC=C(C)C(=O)NC2=CC(=O)C(NCCCCCC[P+](c3ccccc3)(c3ccccc3)c3ccccc3)=C(CC(C)CC(OC)C(O)C(C)C=C(C)C1OC(N)=O)C2=O.F[P-](F)(F)(F)(F)F (stereo not shown) [Gamitrinib] as the compound, how does the drug accumulation ([1]; Cmax and AUC0–24 d 4 vs d 29) read?
A: no drug accumulation after multiple doses

Q: And the “AUC0–24” value ([1]; rat, in vivo, 1 mg/kg)?
A: 174 ng·h/mL

Q: What about the “AUC0–24” value ([1]; rat, in vivo, 10 mg/kg) of the same compound?
A: 1300 ng·h/mL

Q: And the CLSS ([1]; rat, in vivo, iv, 25 mg/kg)?
A: 84.83 to 131.33 mL/min/kg

Q: And the VSS ([1]; rat, in vivo, iv, 25 mg/kg)?
A: 12.2 to 90.0 L/kg

Q: And the IC50 (CYP1A2)?
A: 32.9 µM

Q: What about the IC50 (hERG) of the same compound?
A: 3.5 µM

Q: And the “inhibition of hERG currents” value (hERG; 0.5 µM)?
A: −0.68 ± 3.95%

Q: What about the “inhibition of hERG currents” value (hERG; 5 µM) of the same compound?
A: 65.95 ± 6.78%

Q: What about the “hERG IC50 over IC50 of inhibition of tumor growth in NCI 60-cell line screen” value (hERG; ratio) of the same compound?
A: up to 20 fold
